Data from patent US8609672B2, “Piperazinylpyrimidine analogues as protein kinase inhibitors” (University of the Pacific, priority 2010, dated 2013).

Assays:
M0LT-4 = experiment: NCI-60 SRB growth inhibition: M0LT-4; format: cell-based, human; details: M0LT-4, Leukemia; 48 hours treatment
HOP-62 = experiment: NCI-60 SRB growth inhibition: HOP-62; format: cell-based, human; details: HOP-62, Non-small cell lung cancer; 48 hours treatment
NCI-H226 = experiment: NCI-60 SRB growth inhibition: NCI-H226; format: cell-based, human; details: NCI-H226, Non-small cell lung cancer; 48 hours treatment
NCI-H23 = experiment: NCI-60 SRB growth inhibition: NCI-H23; format: cell-based, human; details: NCI-H23, Non-small cell lung cancer; 48 hours treatment
NCI-H322M = experiment: NCI-60 SRB growth inhibition: NCI-H322M; format: cell-based, human; details: Non-small cell lung cancer, 48 hours treatment
NCI-H460 = experiment: NCI-60 SRB growth inhibition: NCI-H460; format: cell-based, human; details: NCI-H460, Non-small cell lung cancer, 48 hours treatment; for CC50: Homo sapiens, read-out: LC50 (the source's name)
NCI-H522 = experiment: NCI-60 SRB growth inhibition: NCI-H522; format: cell-based, human; details: NCI-H522, Non-small cell lung cancer; 48 hours treatment
HCC-2998 = experiment: NCI-60 SRB growth inhibition: HCC-2998; format: cell-based, human; details: HCC-2998, Colon cancer; 48 hours treatment
HCT-116 = experiment: NCI-60 SRB growth inhibition: HCT-116; format: cell-based; details: HCT-116, Colon cancer; 48 hours treatment
KM12 = experiment: NCI-60 SRB growth inhibition: KM12; format: cell-based, human; details: KM12, Colon cancer, 48 hours treatment; for CC50: Homo sapiens, read-out: LC50 (the source's name)
SW-620 = experiment: NCI-60 SRB growth inhibition: SW-620; format: cell-based, human; details: SW-620, Colon cancer, 48 hours treatment; for CC50: Homo sapiens, read-out: LC50 (the source's name)
SF-268 = experiment: NCI-60 SRB growth inhibition: SF-268; format: cell-based, human; details: SF-268, CNS cancer; 48 hours treatment
SF-539 = experiment: NCI-60 SRB growth inhibition: SF-539; format: cell-based, human; details: SF-539, CNS cancer; 48 hours treatment
U251 = experiment: NCI-60 SRB growth inhibition: U251; format: cell-based, human; details: U251, CNS cancer, 48 hours treatment; for CC50: Homo sapiens, U-251, read-out: LC50 (the source's name)
LOX 1MVI = experiment: NCI-60 SRB growth inhibition: LOX 1MVI; format: cell-based, human; details: Melanoma, 48 hours treatment
M14 = experiment: NCI-60 SRB growth inhibition: M14; format: cell-based, human; details: M14, Melanoma, 48 hours treatment; for CC50: Homo sapiens, read-out: LC50 (the source's name)
SK-MEL-28 = experiment: NCI-60 SRB growth inhibition: SK-MEL-28; format: cell-based, human; details: SK-MEL-28, Melanoma, 48 hours treatment; for CC50: Homo sapiens, read-out: LC50 (the source's name)
OVCAR-4 = experiment: NCI-60 SRB growth inhibition: OVCAR-4; format: cell-based, human; details: OVCAR-4, Ovarian cancer, 48 hours treatment; for CC50: Homo sapiens, read-out: LC50 (the source's name)
A498 = experiment: NCI-60 SRB growth inhibition: A498; format: cell-based, human; details: A498, Renal cancer, 48 hours treatment; for CC50: Homo sapiens, read-out: LC50 (the source's name)
ACHN = experiment: NCI-60 SRB growth inhibition: ACHN; format: cell-based, human; details: Renal cancer, 48 hours treatment; for CC50: Homo sapiens, read-out: LC50 (the source's name)
CAKI-1 = experiment: NCI-60 SRB growth inhibition: CAKI-1; format: cell-based, human; details: CAKI-1, Renal cancer; 48 hours treatment
RXF 393 = experiment: NCI-60 SRB growth inhibition: RXF 393; format: cell-based, human; details: RXF 393, Renal cancer, 48 hours treatment; for CC50: Homo sapiens, read-out: LC50 (the source's name)
TK-10 = experiment: NCI-60 SRB growth inhibition: TK-10; format: cell-based, human; details: TK-10, Renal cancer, 48 hours treatment; for CC50: Homo sapiens, read-out: LC50 (the source's name)
UO-31 = experiment: NCI-60 SRB growth inhibition: UO-31; format: cell-based, human; details: UO-31, Renal cancer; 48 hours treatment
MCF7 = experiment: NCI-60 SRB growth inhibition: MCF7; format: cell-based, human; details: MCF7, Breast cancer; 48 hours treatment
MDA-MB-231/ATCC = experiment: NCI-60 SRB growth inhibition: MDA-MB-231/ATCC; format: cell-based, human; details: Breast cancer, 48 hours treatment
BT-549 = experiment: NCI-60 SRB growth inhibition: BT-549; format: cell-based, human; details: for TGI: BT-549, Breast cancer, 48 hours treatment; for CC50: Homo sapiens, BT-549, 48 h, read-out: LC50 (the source's name)
MDA-MB-468 = experiment: NCI-60 SRB growth inhibition: MDA-MB-468; format: cell-based, human; details: MDA-MB-468, Breast cancer, 48 hours treatment; for CC50: Homo sapiens, read-out: LC50 (the source's name)
NCI-60 cell line panel = experiment: NCI-60 SRB growth inhibition: mean over the panel; format: cell-based, human; details: mean over NCI-60 cell lines, 48 hours treatment; for GI50 / CC50: Homo sapiens; for CC50: read-out: Mean LC50

Compound `c1ccc(Cc2cnc(N3CCN(c4ncnc5ccccc45)CC3)nc2)cc1` [Compound 4, 4-(4-(5-benzylpyrimidin-2-yl)piperazin-1-yl)quinazoline] has a TGI (M0LT-4) of 40.60 µM, a TGI (HOP-62) of 51.60 µM and a TGI (NCI-H226) of 48.40 µM. The TGI (NCI-H23) was 30.80 µM, the TGI (NCI-H322M) was greater than 100 µM and the CC50 (NCI-H460) was 55 µM. For the same compound, the TGI (NCI-H460) was 23.70 µM, the TGI (NCI-H522) was 40.30 µM and the TGI (HCC-2998) was 60.90 µM. For the same compound, the TGI (HCT-116) was 13.20 µM, the CC50 (KM12) was 50.1 µM and the TGI (KM12) was 25.10 µM. It also gave a CC50 (SW-620) of 59.9 µM, a TGI (SW-620) of 27.70 µM and a TGI (SF-268) of 57.20 µM. The TGI (SF-539) was 28.50 µM, the CC50 (U251) was 54.1 µM and the TGI (U251) was 24.60 µM. For the same compound, the TGI (LOX 1MVI) was 19.60 µM, the CC50 (M14) was 51.6 µM and the TGI (M14) was 26.30 µM. The CC50 (SK-MEL-28) was greater than 100 µM, the TGI (SK-MEL-28) was 99.30 µM and the CC50 (OVCAR-4) was greater than 100 µM. The TGI (OVCAR-4) was greater than 100 µM, the TGI (A498) was 24.20 µM and the CC50 (A498) was 50.1 µM. It also gave a CC50 (ACHN) greater than 100 µM, a TGI (ACHN) of 42.40 µM and a TGI (CAKI-1) of 39.30 µM. It also gave a CC50 (RXF 393) greater than 100 µM, a TGI (RXF 393) of 57.90 µM and a CC50 (TK-10) greater than 100 µM. The TGI (TK-10) was 60.80 µM, the TGI (UO-31) was 38.40 µM and the TGI (MCF7) was 58.20 µM. The TGI (MDA-MB-231/ATCC) was 38.10 µM, the TGI (BT-549) was 18.40 µM and the CC50 (BT-549) was 43 µM. It also gave a CC50 (MDA-MB-468) greater than 100 µM, a TGI (MDA-MB-468) of 2.73 µM and a GI50 (NCI-60 cell line panel) of 5.24 µM. The CC50 (NCI-60 cell line panel) was 81.3 µM and the “Mean TGI” value (NCI-60 cell line panel) was 37.15 µM.

For `CCc1cnc(N2CCN(C(=O)c3ccc(CNc4ncnc5ccccc45)cc3)CC2)nc1` [Compound 15, (4-(5-ethylpyrimidin-2-yl)piperazin-1-yl)(4-((quinazolin-4-ylamino)methyl)phenyl)methanone], the TGI (M0LT-4) was 27.60 µM, the TGI (HOP-62) was greater than 100 µM and the TGI (NCI-H226) was greater than 100 µM. For the same compound, the TGI (NCI-H23) was 33.30 µM, the TGI (NCI-H322M) was greater than 100 µM and the CC50 (NCI-H460) was greater than 100 µM. It also gave a TGI (NCI-H460) of 30.70 µM, a TGI (NCI-H522) of 55.40 µM and a TGI (HCC-2998) of 48.90 µM. It also gave a TGI (HCT-116) of 25.00 µM, a CC50 (KM12) of 53.8 µM and a TGI (KM12) of 24.30 µM. For the same compound, the CC50 (SW-620) was greater than 100 µM, the TGI (SW-620) was 45.10 µM and the TGI (SF-268) was greater than 100 µM. It also gave a TGI (SF-539) greater than 100 µM, a CC50 (U251) greater than 100 µM and a TGI (U251) greater than 100 µM. The TGI (LOX 1MVI) was 28.70 µM, the CC50 (M14) was 93.7 µM and the TGI (M14) was 32.70 µM. The CC50 (SK-MEL-28) was greater than 100 µM, the TGI (SK-MEL-28) was greater than 100 µM and the CC50 (OVCAR-4) was greater than 100 µM. It also gave a TGI (OVCAR-4) of 58.80 µM, a TGI (A498) greater than 100 µM and a CC50 (A498) greater than 100 µM. The CC50 (ACHN) was greater than 100 µM, the TGI (ACHN) was 82.50 µM and the TGI (CAKI-1) was 94.80 µM. The CC50 (RXF 393) was greater than 100 µM, the TGI (RXF 393) was 41.60 µM and the CC50 (TK-10) was greater than 100 µM. It also gave a TGI (TK-10) greater than 100 µM, a TGI (UO-31) of 60.50 µM and a TGI (MCF7) of 72.80 µM. For the same compound, the TGI (MDA-MB-231/ATCC) was 84.90 µM, the TGI (BT-549) was 10.70 µM and the CC50 (BT-549) was greater than 100 µM. For the same compound, the CC50 (MDA-MB-468) was greater than 100 µM, the TGI (MDA-MB-468) was 2.22 µM and the GI50 (NCI-60 cell line panel) was 4.46 µM. For the same compound, the CC50 (NCI-60 cell line panel) was greater than 100 µM and the “Mean TGI” value (NCI-60 cell line panel) was 51.28 µM.

In the case of `O=C(c1cccc(Nc2ncnc3ccccc23)c1)N1CCN(c2ncc(Cc3ccccc3)cn2)CC1` [Compound 16, (4-(5-benzylpyrimidin-2-yl)piperazin-1-yl)(3-(quinazolin-4-ylamino)phenyl)methanone], the TGI (M0LT-4) is reported as 1.34 µM, the TGI (HOP-62) is reported as 3.47 µM and the TGI (NCI-H226) is reported as 2.09 µM. It also gave a TGI (NCI-H23) of 2.69 µM, a TGI (NCI-H322M) of 4.79 µM and a CC50 (NCI-H460) greater than 100 µM. The TGI (NCI-H460) was 4.27 µM, the TGI (NCI-H522) was 2.09 µM and the TGI (HCC-2998) was 3.98 µM. For the same compound, the TGI (HCT-116) was 3.55 µM, the CC50 (KM12) was 6.61 µM and the TGI (KM12) was 2.40 µM. For the same compound, the CC50 (SW-620) was greater than 100 µM, the TGI (SW-620) was 4.27 µM and the TGI (SF-268) was greater than 100 µM. It also gave a TGI (SF-539) of 4.90 µM, a CC50 (U251) greater than 100 µM and a TGI (U251) of 6.61 µM. It also gave a TGI (LOX 1MVI) of 2.45 µM, a CC50 (M14) of 4.68 µM and a TGI (M14) of 2.14 µM. For the same compound, the CC50 (SK-MEL-28) was 5.25 µM, the TGI (SK-MEL-28) was 2.82 µM and the CC50 (OVCAR-4) was 7.59 µM. The TGI (OVCAR-4) was 1.95 µM, the TGI (A498) was 5.37 µM and the CC50 (A498) was greater than 100 µM. For the same compound, the CC50 (ACHN) was greater than 100 µM, the TGI (ACHN) was 4.57 µM and the TGI (CAKI-1) was 1.91 µM. It also gave a CC50 (RXF 393) greater than 100 µM, a TGI (RXF 393) of 11.48 µM and a CC50 (TK-10) of 39.8 µM. The TGI (TK-10) was 6.17 µM, the TGI (UO-31) was 1.82 µM and the TGI (MCF7) was 2.29 µM. It also gave a TGI (MDA-MB-231/ATCC) of 2.95 µM, a TGI (BT-549) of 1.74 µM and a CC50 (BT-549) of 5.37 µM. It also gave a CC50 (MDA-MB-468) greater than 100 µM, a TGI (MDA-MB-468) of 3.47 µM and a GI50 (NCI-60 cell line panel) of 1.05 µM. For the same compound, the “Mean TGI” value (NCI-60 cell line panel) was 3.24 µM.
